We go through two compounds from US7780859B2, “Uncoupling agents” (Rhodia Operations, priority 2003, dated 2010).

Read-outs that look alike come from different tables or passages of the source.

In assay [1] the test system is sludge microorganisms. The following applies: for Growth Yield / Specific Activity / Growth Yield Reduction: flash mixing, 52 days; for Growth Yield Reduction: vs untreated control. An excerpt: A series of semi-continuous chemostat reactors was constructed to simulate wastewater treatment processes.
The central part of the equipment is the biological chemostat reactor 1. The reactor vessel 2 is made of glass, with an internal volume of 10 liters and is fitted with pH 3 and dissolved oxygen 4 sensors and an air sparge 5. This contains the sludge, which is, essentially, a mass of typical wastewater treatment microorganisms. The reactor operates at an ambient temperature (approximately 20° C.).
Simulated wastewater 13 is contained in a separate vessel 6 and maintained at 4° C. to prevent microbial spoilage. It is transferred into the reactor via a supply line 7 and a peristaltic pump 8.
A recirculating line 9 is provided on the reactor comprising a length of flexible silicone tubing and a peristaltic pump 10. The peristaltic pump extracts the sludge from the reactor into the recirculation line. The candidate water-soluble biocide is introduced into this line 9 through a needle 11, which is fed by a syringe pump 12. Using this system it is possible to achieve “flash mixing” which ensures rapid contact of the water-soluble biocide with the sludge microorganisms. The internal diameter of the recirculating line was 8 mm and the flow velocity was 0.5 meters per second, which gave a contact time, between candidate water-soluble biocide and sludge of 3 seconds before it re-entered the reactor.
Treated effluent 17 is removed from the reactor into a collecting vessel 16 via an outlet line 15.
The reactor was charged with sludge obtained from the Municipal wastewater treatment works at Courly-Lyon, in France. This sludge provided the “seed” to start the process off. The reactor was then filled, to the 5 liter mark, with simulated wastewater, adjusted to approximately pH 7.5, and aeration was commenced.
Each weekday (i.e. 5 times per week), 13.3% of the bioreactor contents were withdrawn to maintain the equilibrium. This ensured a sludge age in the region of 7.5 days.
Also, each weekday, after the adjustments described in the preceding paragraph, candidate water-soluble biocide (as a dilute solution) was injected into the system via the flash mixing recirculating line. The dilute solution was prepared by dissolving 10 grams of sodium hydrogen carbonate in approximately 900 ml of deionised water then adding 5 grams of candidate water-soluble biocide and mixing well. The mixture was then made up to 1 liter with deionised water. The appropriate volume of this dilute solution was injected to achieve the required dose level.
The experiment was conducted for 52 days before decommissioning the system.
Compound X was evaluated in the test. This compound is a 75% aqueous solution of tetrakis(hydroxymethyl)phosphonium sulphate (THPS). Two concentrations were evaluated: 2 and 4 milligrams per liter per day.

For assay [2], the system named is sludge microorganisms. Conditions: 4 mg/l/day, pre-dilution, 52 days. As to the method:
The equipment used in this test sequence was identical to that used for example 1 except that the reactor was not fitted with a recirculating line for flash mixing.
The procedure was identical to that used for example 1 except that the method of dosing Compound X was different. In this case, 5 grams of Compound X was mixed into a solution containing 5 grams of sodium hydrogen carbonate in 1 liter of deionised water. 4.0 ml of this solution was added to 500 ml of clarified wastewater which had been extracted from the bioreactor. The treated clarified wastewater was then returned to the bioreactor and normal operation of the bioreactor was resumed. The final concentration of Compound X in the bioreactor therefore equates to 4 mg per liter. This procedure was conducted daily, 5 times per week.
The experiment was conducted in parallel with example 1, i.e. for 52 days before decommissioning the system.
A Compound X concentration of 4 milligrams per liter per day was used.

For assay [3], the system named is municipal activated sludge. Briefly: Laboratory screening test for growth uncoupling by oxygen consumption pattern analysis (Oxitop BOD system). Conditions: test biocides at 1, 2.5, 5, 10 and 25 mg/l; 2,4-dinitrophenol at 20 mg/l; 7 days at 20° C. The source says: A laboratory screening test was developed to determine the impact of chemical compounds on respiration parameters through an oxygen consumption pattern analysis using a model based on published work by Monod and Pirt^1. Growth uncoupling is characterised by an increase in oxygen consumption during bacterial growth in a synthetic growth medium. 1. Monod J. 1950, Ann Inst Pasteur, “La Technique de Culture Continue, Theorie et Applications”, 79:390-410. Monod J. 1942, “Recherches sur la Croissance des Cultures Bactériennes”. Paris Herman p. 210. Pirt S J. (1965) “The Maintenance Energy of Bacteria In Growing Cultures”. Proceedings of the Royal Society of London B 163, 224-231. “Principles of Water Quality Management”. Ed: W. W. Eckenfelder, Jr. CBI Publishing Company, Inc USA. […]
For the evaluation of proposed water-soluble biocides, the oxygen consumption kinetics are measured and, a process of computer iteration optimises the equation coefficients optimised to fit the oxygen consumption curve.
From the optimised coefficients, the degree of bacterial uncoupling can be calculated. […]
Three conventional water treatment biocides were evaluated as bacterial water-soluble biocides. […]
Based on the liquid sludge, 2,4-dinitrophenol was dosed at 20 mg/l, this being the known level at which significant uncoupling would result. The test biocides were each evaluated at 1, 2.5, 5, 10 and 25 mg/l. […]

Regarding “tetrakis(hydroxymethyl)phosphonium sulphate [Compound X]”, the “Growth Yield” value is reported as 0.202 g MLSS/g COD in assay [1] (2 mg/l/day), 0.167 g MLSS/g COD in assay [1] (4 mg/l/day) and 0.201 g MLSS/g COD in assay [2]. For the same compound, the “Specific Activity” value is listed as 0.582 g COD/g MLSS.d in assay [1] (2 mg/l/day), 0.772 g COD/g MLSS.d in assay [1] (4 mg/l/day) and 0.636 g COD/g MLSS.d in assay [2]. Besides, the “Growth Yield Reduction” value in assay [1] (2 mg/l/day) stood at 27.7%; in assay [1] (4 mg/l/day), 37.6%; in assay [2] (vs untreated control) it was 26.4%. Moreover, in assay [1] (flash treatment, low dose levels), the sludge growth result was “significantly reducing sludge growth”. Moreover, the “concentration of protozoans and other higher organisms in the sludge” value in assay [1] (treated sludge relative to untreated) was “significantly higher concentration”. For the same compound, the “filamentous bacteria in the sludge” value in assay [1] (treated systems vs untreated control) is “substantially absent”.

Regarding `CCCCCCCCCCCC[N+](C)(C)C.[Cl-]` [C, Dodecyltrimethylammonium chloride], in assay [3], the “level of uncoupling (percentage uncoupling, FIG. 4)” value was “greater levels of uncoupling at significantly lower dose levels than the conventional water-soluble biocide, 2,4-dinitrophenol”.
